# Where a name gives a salt, the structure may show the parent alone.
# Molecular target: T1, EGFR del746-750 T790M (Homo sapiens, UniProt P00533, DEL746-750/T790M)
# T1 construct: purchased Carna Biosciences 08-528
# Experiment: EGFR del746-750 T790M biochemical assay (Caliper mobility shift)
# Conditions: 5 μM ATP, 30 min, room temperature; apparent Ki (Morrison) converted by Cheng-Prusoff, Km of ATP 2.1 μM; read-out: EGFR(T790M/d746-750) Ki
# T1 sequence (P00533 with tags, fused parts or gaps DEL746-750/T790M limits assumed): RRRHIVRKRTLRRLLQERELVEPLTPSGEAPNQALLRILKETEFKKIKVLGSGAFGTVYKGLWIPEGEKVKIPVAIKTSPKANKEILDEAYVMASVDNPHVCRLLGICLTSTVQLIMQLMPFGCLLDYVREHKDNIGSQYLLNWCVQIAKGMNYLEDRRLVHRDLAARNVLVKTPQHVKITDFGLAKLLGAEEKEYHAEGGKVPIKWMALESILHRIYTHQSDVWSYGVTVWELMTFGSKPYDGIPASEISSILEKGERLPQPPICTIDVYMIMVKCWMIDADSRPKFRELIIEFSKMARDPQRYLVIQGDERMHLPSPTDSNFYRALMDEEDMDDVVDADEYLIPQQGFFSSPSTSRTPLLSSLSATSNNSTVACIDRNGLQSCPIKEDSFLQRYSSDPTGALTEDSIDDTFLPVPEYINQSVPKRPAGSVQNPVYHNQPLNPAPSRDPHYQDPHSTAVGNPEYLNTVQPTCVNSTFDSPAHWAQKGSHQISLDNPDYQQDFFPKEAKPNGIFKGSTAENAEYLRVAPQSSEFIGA
row,Structure (SMILES),Ki [nM]
1,"CS[C@H]1CCN(c2nccc(Nc3cc4c(cn3)nc(C)n4C(C)C)n2)C[C@H]1F (racemic) [Example 617, [2-(±)-(cis-3-Fluoro-4-methylsulfanylpiperidin-1-yl)pyrimidin-4-yl]-(1-isopropyl-2-methyl-1H-imidazo[4,5-c]pyridin-6-yl)amine]",115
2,"Cc1nc2cnc(Nc3ccnc(N4CC[C@H]([S+](C)[O-])[C@H](F)C4)n3)cc2n1C(C)C (mixture of isomers) [Example 618, [2-(±)-(cis-3-Fluoro-4-methanesulfinylpiperidin-1-yl)pyrimidin-4-yl]-(1-isopropyl-2-methyl-1H-imidazo[4,5-c]pyridin-6-yl)amine]",236
3,"CC(C)n1c(CO)nc2cnc(Nc3ccnc(N4CC[C@](C)(O)[C@H](F)C4)n3)cc21 (racemic) [Example 619, (3RS,4SR)-3-Fluoro-1-[4-(2-hydroxymethyl-1-isopropyl-1H-imidazo[4,5-c]pyridin-6-ylamino)pyrimidin-2-yl]-4-methylpiperidin-4-ol]",146
4,"CS[C@H]1CCN(c2nccc(Nc3cc4c(cn3)nc(CO)n4C(C)C)n2)C[C@H]1F (racemic) [Example 622, (±)-{6-[2-(cis-3-Fluoro-4-methylsulfanylpiperidin-1-yl)pyrimidin-4-ylamino]-1-isopropyl-1H-imidazo[4,5-c]pyridin-2-yl}methanol]",170
5,"CC(C)n1c(CO)nc2cnc(Nc3ccnc(N4CC[C@H](O)[C@H](C(F)(F)F)C4)n3)cc21 (racemic) [Example 626, (±)-(cis)-1-(4-(2-(Hydroxymethyl)-1-isopropyl-1H-imidazo[4,5-c]pyridin-6-ylamino)pyrimidin-2-yl)-3-(trifluoromethyl)piperidin-4-ol]",1250
6,"CC(C)n1c(CO)nc2cnc(Nc3ccnc(N4CC[C@@H](O)[C@H](C(F)(F)F)C4)n3)cc21 (racemic) [Example 627, (±)-(trans)-1-(4-(2-(Hydroxymethyl)-1-isopropyl-1H-imidazo[4,5-c]pyridin-6-ylamino)pyrimidin-2-yl)-3-(trifluoromethyl)piperidin-4-ol]",1570
7,"CO[C@H]1CCN(c2nccc(Nc3cc4c(cn3)nc(CO)n4C(C)C)n2)C[C@H]1C(F)(F)F (racemic) [Example 628, (1-Isopropyl-6-(2-((±)-(cis)-4-methoxy-3-(trifluoromethyl)piperidin-1-yl)pyrimidin-4-ylamino)-1H-imidazo[4,5-c]pyridin-2-yl)methanol]",1190
8,"CO[C@@H]1CCN(c2nccc(Nc3cc4c(cn3)nc(CO)n4C(C)C)n2)C[C@H]1C(F)(F)F (racemic) [Example 629, (1-Isopropyl-6-(2-((±)-(trans)-4-methoxy-3-(trifluoromethyl)piperidin-1-yl)pyrimidin-4-ylamino)-1H-imidazo[4,5-c]pyridin-2-yl)methanol]",2960
9,"CC(C)n1c(CO)nc2cnc(Nc3ccnc(N4CC[C@@H](O)[C@H](C)C4)n3)cc21 (racemic) [Example 630, (±)-(trans)-1-(4-(2-(Hydroxymethyl)-1-isopropyl-1H-imidazo[4,5-c]pyridin-6-ylamino)pyrimidin-2-yl)-3-methylpiperidin-4-ol]",202
10,"CC(C)n1c(CO)nc2cnc(Nc3ccnc(N4CC[C@H](O)[C@H](C)C4)n3)cc21 (racemic) [Example 631, (±)-(cis)-1-(4-(2-(Hydroxymethyl)-1-isopropyl-1H-imidazo[4,5-c]pyridin-6-ylamino)pyrimidin-2-yl)-3-methylpiperidin-4-ol]",351
11,"CO[C@@H]1CCN(c2nccc(Nc3cc4c(cn3)nc(CO)n4C(C)C)n2)C[C@@H]1C (racemic) [Example 632, (1-Isopropyl-6-(2-((±)-(cis)-4-methoxy-3-methylpiperidin-1-yl)pyrimidin-4-ylamino)-1H-imidazo[4,5-c]pyridin-2-yl)methanol]",326
12,"CC(C)n1c(CO)nc2cnc(Nc3ccnc(N4CC[C@@](O)(C5CC5)[C@H](F)C4)n3)cc21 (racemic) [Example 633, (3RS,4RS)-4-cyclopropyl-3-fluoro-1-(4-((2-(hydroxymethyl)-1-isopropyl-1H-imidazo[4,5-c]pyridin-6-yl)amino)pyrimidin-2-yl)piperidin-4-ol]",210
13,"CO[C@@H]1CCN(c2nccc(Nc3cc4c(cn3)nc(CO)n4C(C)C)n2)C[C@@H]1Cl (racemic) [Example 634, (6-(2-((±)-(cis)-3-Chloro-4-methoxypiperidin-1-yl)pyrimidin-4-ylamino)-1-isopropyl-1H-imidazo[4,5-c]pyridin-2-yl)methanol]",146
14,"CCC(C)n1cc(C(=O)NC2CCOCC2)c2cnc(Nc3ccnc(N4CCC(C)(O)CC4)n3)cc21 (racemic) [Example 638, 1-(sec-butyl)-6-((2-(4-hydroxy-4-methylpiperidin-1-yl)pyrimidin-4-yl)amino)-N-(tetrahydro-2H-pyran-4-yl)-1H-pyrrolo[3,2-c]pyridine-3-carboxamide]",14.9
15,"C[C@H](n1c(CO)nc2cnc(Nc3ccnc(N4CC[C@H](O)[C@H](F)C4)n3)cc21)C(C)(F)F (racemic) [Example 644, (±)-(cis)-1-(4-(1-((S)-3,3-Difluorobutan-2-yl)-2-(hydroxymethyl)-1H-imidazo[4,5-c]pyridin-6-ylamino)pyrimidin-2-yl)-3-fluoropiperidin-4-ol]",3.45
16,"CC(C)n1c(CO)nc2cnc(Nc3ccnc(N4CC[C@H](O)[C@](C)(F)C4)n3)cc21 (racemic) [Example 645, (3RS,4SR)-3-Fluoro-1-(4-((2-(hydroxymethyl)-1-isopropyl-1H-imidazo[4,5-c]pyridin-6-yl)amino)pyrimidin-2-yl)-3-methylpiperidin-4-ol]",68.7
17,"CCC(C)n1cc(C(=O)NC2CCOCC2)c2cnc(Nc3ccnc(N4C[C@@H](F)[C@@H](O)C(C)(C)C4)n3)cc21 (mixture of isomers) [Example 646, 1-sec-Butyl-6-(2-((±)-cis-5-fluoro-4-hydroxy-3,3-dimethylpiperidin-1-yl)pyrimidin-4-ylamino)-N-(tetrahydro-2H-pyran-4-yl)-1H-pyrrolo[3,2-c]pyridine-3-carboxamide]",3.72

row,Structure (SMILES),Ki [nM]
1,"CC(C)n1c(CO)nc2cnc(Nc3ccnc(N4CC[C@H]([S+](C)[O-])[C@H](F)C4)n3)cc21 (relative stereo) [Example 623, {6-[2-(cis-3-Fluoro-4-methanesulfinylpiperidin-1-yl)pyrimidin-4-ylamino]-1-isopropyl-1H-imidazo[4,5-c]pyridin-2-yl}methanol]",393
2,"CCC(C)n1cc(C(=O)NC2CCOCC2)c2cnc(Nc3ccnc(N4CC[C@@H](O)[C@@H](F)C4)n3)cc21 (single isomer, unassigned) [Example 323]",3.41
3,"CCC(C)n1cc(C(=O)NC2CCOCC2)c2cnc(Nc3ccnc(N4CC[C@@H](O)[C@@H](F)C4)n3)cc21 (single isomer, unassigned) [Example 324]",2.39
4,"CCC(C)n1cc(C(=O)NC2CCN(C3COC3)CC2)c2cnc(Nc3ccnc(N4CC[C@@H](OC)[C@@H](F)C4)n3)cc21 (single isomer, unassigned) [Example 325]",3.35
5,"CCC(C)n1cc(C(=O)NC2CCN(C3COC3)CC2)c2cnc(Nc3ccnc(N4CC[C@@H](OC)[C@@H](F)C4)n3)cc21 (single isomer, unassigned) [Example 326]",3.83
6,"CC[C@@H](C)n1cc(C(=O)NC2CCOCC2)c2cnc(Nc3ccnc(N4CC[C@H](OC)[C@H](F)C4)n3)cc21 (single isomer, unassigned) [Example 339]",4.12
7,"CC[C@H](C)n1cc(C(=O)NC2CCOCC2)c2cnc(Nc3ccnc(N4CC[C@H](OC)[C@H](F)C4)n3)cc21 (single isomer, unassigned) [Example 340]",3.33
8,"CCNC(=O)c1cn(C(C)CC)c2cc(Nc3ccnc(N4CC[C@@H](O)[C@@H](F)C4)n3)ncc12 (single isomer, unassigned) [Example 370]",4.02
9,"CCC(C)n1cc(C(=O)NC2CCOCC2)c2cnc(Nc3ccnc(N4CC[C@@H](OC)[C@@H](F)C4)n3)cc21 (single isomer, unassigned) [Example 375]",3.41
10,"C[C@H](n1c([C@@H](C)O)nc2cnc(Nc3ccnc(N4CC[C@@](C)(O)[C@@H](F)C4)n3)cc21)C(F)(F)F (single isomer, unassigned) [Example 621, (3R*,4S*)-3-Fluoro-1-{4-[2-((R)-1-hydroxyethyl)-1-((S)-2,2,2-trifluoro-1-methylethyl)-1H-imidazo[4,5-c]pyridin-6-ylamino]pyrimidin-2-yl}-4-methylpiperidin-4-ol]",21.7
11,"CC(n1cc(C(=O)NC2CCOCC2)c2cnc(Nc3ccnc(N4CC[C@@H](O)[C@@H](F)C4)n3)cc21)C(F)(F)F (single isomer, unassigned) [Example 639]",15
12,"CC(n1cc(C(=O)NC2CCOCC2)c2cnc(Nc3ccnc(N4CC[C@@H](O)[C@@H](F)C4)n3)cc21)C(F)(F)F (single isomer, unassigned) [Example 640]",15.3
13,"CCC(C)n1cc(C(=O)NC2CCOCC2)c2cnc(Nc3ccnc(-c4cnn(S(=O)(=O)C5CC5)c4)n3)cc21 (single isomer, unassigned; (+)) [Example 321, (+)-1-(sec-Butyl)-6-((2-(1-(cyclopropylsulfonyl)-1H-pyrazol-4-yl)pyrimidin-4-yl)amino)-N-(tetrahydro-2H-pyran-4-yl)-1H-pyrrolo[3,2-c]pyridine-3-carboxamide]",1.45
14,"CNc1nc2cnc(Nc3ccnc(N4CCC(OC)CC4)n3)cc2n1C(C)C [Example 6, 1-Isopropyl-N^6-[2-(4-methoxypiperidin-1-yl)pyrimidin-4-yl]-N^2-methyl-1H-imidazo[4,5-c]pyridine-2,6-diamine]",63.3
15,"COC1CCN(c2nccc(Nc3cc4c(cn3)nc(CN(C)C)n4C(C)C)n2)CC1 [Example 9, (2-Dimethylaminomethyl-1-isopropyl-1H-imidazo[4,5-c]pyridin-6-yl)-[2-(4-methoxypiperidin-1-yl)pyrimidin-4-yl]amine formate salt]",417
16,"COC1CCN(c2nccc(Nc3cc4c(cn3)nc(CO)n4C(C)C)n2)CC1 [Example 10, {1-Isopropyl-6-[2-(4-methoxypiperidin-1-yl)pyrimidin-4-ylamino]-1H-imidazo[4,5-c]pyridin-2-yl}methanol]",63.2

# Reference: patent publication US9890152B2 (Genentech, Inc., priority 2012, dated 2018)
